Source: patent US7713994B2 (Wyeth LLC, priority 2005, dated 2010)
Like-named read-outs stand apart in the source and are kept apart here.

Legend:
[1] = system: LoVo; assay: Cytotoxicity assay (SRB), LoVo; assay type: cell-based; details: Homo sapiens, LoVo, 72 h, LoVo cells, SRB, read-out: In Vitro Cellular Activity IC50 LOVO
Summary of the method: (§1)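 Percentage survival is derived from SRB absorbance (540 nm) versus untreated cells. Exposures were 3 days, except 6 days for BT474, at 37 °C and 7% CO2.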

[2] = system: BT474; assay: Cytotoxicity assay (SRB), BT474; assay type: cell-based
Summary of the method: as §1

[3] = system: HCT-116; assay: Cytotoxicity assay (SRB), HCT-116; assay type: cell-based; details: Homo sapiens, HCT-116, 72 h, HCT116 cells, SRB, read-out: In Vitro Cellular Activity IC50 HCT116
Summary of the method: as §1

[4] = system: MCF-7; assay: Cytotoxicity assay (SRB), MCF-7; assay type: cell-based; details: Homo sapiens, MCF7, 72 h, MCF-7 cells, SRB, read-out: In Vitro Cellular Activity IC50 MCF-7
Summary of the method: as §1

[5] = target: T1, cyclin E/CDK2 enzyme (Homo sapiens, UniProt P24941); assay: CDK2 ELISA kinase assay (phospho-Rb ser 795 detection); assay type: biochemical
T1 construct: made in house; host or cells: Sf9 insect cells, recombinant baculovirus
Summary of the method: (§2)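 Wells were coated overnight with GST-Rb C-terminal fragment, then blocked. Compound (10 ug/ml final) and cyclin/CDK enzyme from baculovirus-infected Sf9 cells with 200 μM ATP reacted 1 h at 30° C. Ser795 phosphorylation was detected by ELISA at 450 nm.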

[6] = target: T2, cyclin B/CDK1 enzyme (Homo sapiens, UniProt P06493); assay: CDK1 ELISA kinase assay (phospho-Rb ser 795 detection); assay type: biochemical
T2 construct: purchased New England BioLabs; host or cells: Sf9 insect cells, recombinant baculovirus
T2 sequence (P06493 whole entry): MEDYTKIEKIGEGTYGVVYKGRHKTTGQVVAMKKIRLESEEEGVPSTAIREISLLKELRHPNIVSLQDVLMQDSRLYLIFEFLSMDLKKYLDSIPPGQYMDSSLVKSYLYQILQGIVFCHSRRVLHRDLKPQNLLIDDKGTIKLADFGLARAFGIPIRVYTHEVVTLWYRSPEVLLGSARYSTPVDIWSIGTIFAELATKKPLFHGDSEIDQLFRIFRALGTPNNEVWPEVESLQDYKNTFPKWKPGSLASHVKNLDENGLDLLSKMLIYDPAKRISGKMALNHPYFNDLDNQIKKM
T2 sequence (P14635 whole entry partner): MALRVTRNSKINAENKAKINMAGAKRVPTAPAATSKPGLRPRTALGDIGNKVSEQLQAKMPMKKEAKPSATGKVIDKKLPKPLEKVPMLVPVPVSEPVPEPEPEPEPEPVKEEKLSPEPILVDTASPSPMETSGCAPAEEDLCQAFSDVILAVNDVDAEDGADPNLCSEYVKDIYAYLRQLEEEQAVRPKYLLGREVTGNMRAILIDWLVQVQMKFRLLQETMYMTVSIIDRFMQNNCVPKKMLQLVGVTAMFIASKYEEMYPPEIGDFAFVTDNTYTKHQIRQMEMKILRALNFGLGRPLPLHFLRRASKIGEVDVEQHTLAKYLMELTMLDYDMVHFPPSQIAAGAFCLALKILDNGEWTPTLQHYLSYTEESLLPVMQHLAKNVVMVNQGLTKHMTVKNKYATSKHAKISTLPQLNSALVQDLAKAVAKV
Summary of the method: as §2

[7] = target: T3, cyclin D1/cdk 4 enzyme (Homo sapiens, UniProt P11802); assay: CDK4 ELISA kinase assay (phospho-Rb ser 795 detection); assay type: biochemical
T3 construct: made in house; host or cells: Sf9 insect cells, recombinant baculovirus
T3 sequence (P11802 whole entry, species assumed): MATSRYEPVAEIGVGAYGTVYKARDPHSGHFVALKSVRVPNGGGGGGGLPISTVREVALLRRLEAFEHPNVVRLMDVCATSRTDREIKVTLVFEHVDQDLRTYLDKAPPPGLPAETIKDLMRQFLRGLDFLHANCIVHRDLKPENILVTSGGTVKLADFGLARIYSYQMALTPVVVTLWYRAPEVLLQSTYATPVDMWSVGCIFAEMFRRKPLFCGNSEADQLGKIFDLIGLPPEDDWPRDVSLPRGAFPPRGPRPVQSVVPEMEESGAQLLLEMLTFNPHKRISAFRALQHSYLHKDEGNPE
T3 sequence (P24385 whole entry partner, species assumed): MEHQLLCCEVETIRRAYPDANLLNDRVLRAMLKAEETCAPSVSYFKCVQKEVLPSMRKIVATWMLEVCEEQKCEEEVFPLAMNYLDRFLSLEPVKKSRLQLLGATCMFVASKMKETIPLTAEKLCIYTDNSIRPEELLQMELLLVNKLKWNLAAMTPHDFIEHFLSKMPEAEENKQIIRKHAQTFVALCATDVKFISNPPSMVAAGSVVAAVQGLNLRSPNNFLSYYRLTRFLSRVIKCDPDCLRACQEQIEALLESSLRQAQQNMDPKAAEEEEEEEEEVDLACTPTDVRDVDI
Summary of the method: as §2

[8] = Homo sapiens, BT-474, 144 h, BT474 cells, SRB, 6 days; read-out: In Vitro Cellular Activity IC50 BT474
[9] = In Vitro Enzyme Assays, read-out: CDK2 IC50
[10] = In Vitro Enzyme Assays, read-out: CDK1 IC50
[11] = In Vitro Enzyme Assays, 200 μM ATP, read-out: CDK4 IC50
[12] = Homo sapiens, BT-474, 144 h, BT474 cells, 6 days, SRB; read-out: In Vitro Cellular Activity IC50 BT474
[13] = In Vitro Enzyme Assay, cyclin E/CDK2, read-out: CDK2 IC50
[14] = In Vitro Enzyme Assay, cyclin B/CDK1, read-out: CDK1 IC50
[15] = In Vitro Enzyme Assay, cyclin D1/cdk 4, read-out: CDK4 IC50

Row | SMILES | IC50 ([1]; three days) | IC50 [2, 8] | IC50 ([3]; three days) | melting point | IC50 ([4]; three days) | IC50 [5, 9] | IC50 [6, 10] | IC50 [7, 11] | IC50 ([1]; 3 days) | IC50 [2, 12] | IC50 ([3]; 3 days) | IC50 ([4]; 3 days) | IC50 [5, 13] | IC50 [6, 14] | IC50 [7, 15]
1 | CN1CCN(c2ccc(N/C=C3\C(=O)NC(=O)c4ccc(-c5ccoc5)cc43)cc2F)CC1 [Example 297, (4Z)-4-({[3-Fluoro-4-(4-methylpiperazin-1-yl)phenyl]amino}methylene)-6-(3-furyl)isoquinoline-1,3(2H,4H)-dione] | 2 µM | 1.2 µM | 2.2 µM | 203 to 204 °C | 0.95 µM | > 50 µM | > 50 µM | 0.08 µM |  |  |  |  |  |  | 
2 | CN1CCN(c2ccc(N/C=C3\C(=O)NC(=O)c4ccc(Br)cc43)cn2)CC1 [Example 250, (4Z)-6-Bromo-4-({[6-(4-methylpiperazin-1-yl)pyridin-3-′yl]amino}methylene)isoquinoline-1,3(2H,4H)-dione] | 7.1 µM | 7.6 µM | 6.2 µM | 265 to 266 °C | 1.6 µM | > 50 µM | > 50 µM | 2.8 µM |  |  |  |  |  |  | 
3 | C[C@@H]1CN(c2ccc(N/C=C3\C(=O)NC(=O)c4ccc(-c5ccsc5)cc43)cc2F)C[C@H](C)N1 [Example 325, (4Z)-4-[({4-[(3R,5S)-3,5-Dimethylpiperazin-1-yl]-3-fluorophenyl}amino)methylene]-6-thien-3-ylisoquinoline-1,3(2H,4H)-dione] | 2.4 µM | 1.2 µM | 0.72 µM | 214 to 215 °C | 1 µM | > 50 µM | 39.7 µM | 0.14 µM |  |  |  |  |  |  | 
4 | CC1CCCN1Cc1ccc(N/C=C2\C(=O)NC(=O)c3ccc(-c4ccc(F)cc4)cc32)cc1 (stereo not shown) [Example 289, (4Z)-6-(4-Fluorophenyl)-4-[({4-[(2-methylpyrrolidin-1-yl)methyl]phenyl}amino)-methylene]isoquinoline-1,3(2H,4H)-dione] | 7.4 µM | 1.3 µM | 2.2 µM | 165 to 166 °C | 0.9 µM | > 50 µM | > 50 µM | 0.31 µM |  |  |  |  |  |  | 
5 | CC(C)N1CCN(c2ccc(N/C=C3\C(=O)NC(=O)c4ccc(-c5ccoc5)cc43)nc2)CC1 [Example 488, (4Z)-6-(3-Furyl)-4-({[5-(4-isopropylpiperazin-1-yl)pyridin-2-yl]amino}methylene)isoquinoline-1,3(2H,4H)-dione] |  |  |  | 278 to 279 °C |  |  |  |  | 2.41 µM | 0.96 µM | 3.16 µM | 2.27 µM | > 50 µM | > 50 µM | 0.43 µM
6 | COCC#Cc1ccc2c(c1)/C(=C/Nc1ccc(N3CCN(C)CC3)cc1)C(=O)NC2=O [Example 177, (4Z)-6-(3-Methoxyprop-1-ynyl)-4-({[4-(4-methylpiperazin-1-yl)phenyl]amino}-methylene)isoquinoline-1,3(2H,4H)-dione] | 3.9 µM | 3.9 µM | 3.1 µM | 209 to 210 °C | 4.1 µM | > 50 µM | > 50 µM | 1.1 µM |  |  |  |  |  |  | 
7 | CN1CCCC1c1ccc(N/C=C2\C(=O)NC(=O)c3ccc(-n4cccc4)cc32)nc1 (stereo not shown) [Example 459] |  |  |  | 186 to 196 °C (dec.) |  |  |  |  | 9.5 µM | 17.3 µM | 13 µM | 10.7 µM | > 50 µM | > 50 µM | 3.7 µM
8 | O=C1NC(=O)c2ccc(-c3ccsc3)cc2/C1=C/Nc1ccc(N2CCC(N3CCCC3)CC2)c(F)c1 [Example 406, (4Z)-4-({[3-Fluoro-4-(4-pyrrolidin-1-ylpiperidin-1-yl)phenyl]amino}methylene)-6-thien-3-ylisoquinoline-1,3(2H,4H)-dione] |  |  |  | 200 to 201 °C |  | 49.7 µM | 31.7 µM | 0.09 µM | 2.7 µM | 3.9 µM | 2.6 µM | 3.4 µM |  |  | 
9 | COc1cc(CN/C=C2\C(=O)NC(=O)c3ccc(I)cc32)cc(O)c1OC [Example 89, (4Z)-6-Iodo-4-{[(3-hydroxy-4,5-dimethoxybenzyl)amino)methylene}isoquinoline-1,3(2H,4H)-dione] | 7.8 µM | 5.9 µM | 3.7 µM | 265 to 266 °C | 20 µM | 3.3 µM | > 50 µM | 0.002 µM |  |  |  |  |  |  | 
10 | CN(C)C1CCN(Cc2ccc(N/C=C3\C(=O)NC(=O)c4ccc(I)cc43)cc2)C1 (stereo not shown) [Example 422, (4Z)-4-{[(4-{[3-(Dimethylamino)pyrrolidin-1-yl]methyl}phenyl)amino]methylene}-6-iodoisoquinoline-1,3(2H,4H)-dione] |  |  |  | 134 to 135 °C |  | > 50 µM | > 50 µM | 0.29 µM | 3.8 µM | 3.7 µM | 2 µM | 5.6 µM |  |  | 
11 | CN(C)C[C@@H]1CCCN1Cc1ccc(N/C=C2\C(=O)NC(=O)c3ccc(I)cc32)cc1 [Example 423] |  |  |  | 130 to 131 °C |  | > 50 µM | > 50 µM | 1.4 µM | 4.5 µM | 5.4 µM | 3.8 µM | 4.3 µM |  |  | 
12 | COC(=O)Oc1ccc(CN/C=C2\C(=O)NC(=O)c3ccc(Br)cc32)cc1OC(=O)OC [Example 76, Carbonic acid 5-{[(6-bromo-1,3-dioxo-2,3-dihydro-1H-isoquinolin-4-ylidenemethyl)-amino]-methyl}-2-methoxycarbonyloxy-phenyl ester methyl ester] | 5.9 µM | 5.5 µM | 5 µM | 239 to 240 °C | 9.1 µM | > 50 µM | 40.7 µM | 0.39 µM |  |  |  |  |  |  | 
13 | NS(=O)(=O)c1ccc(CN/C=C2\C(=O)NC(=O)c3ccc(Br)cc32)cc1 [Example 56, 4-({[(Z)-(6-Bromo-1,3-dioxo-2,3-dihydroisoquinolin-4(1H)-ylidene)methyl]amino}methyl)benzenesulfonamide] | 30 µM | 23 µM | 28 µM | 273 to 274 °C | 27 µM | 1.3 µM | 16.2 µM | 0.48 µM |  |  |  |  |  |  | 
14 | O=C1NC(=O)c2ccc(I)cc2/C1=C/Nc1ccc(CN2CCC(CCO)CC2)cc1 [Example 480, (4Z)-4-{[(4-{[4-(2-Hydroxyethyl)piperidin-1-yl]methyl}phenyl)amino]methylene}-6-iodoisoquinoline-1,3(2H,4H)-dione] |  |  |  | 223 to 224 °C |  |  |  |  | 4.5 µM | 1 µM | 3.3 µM | 1.6 µM | 26.5 µM | > 50 µM | 0.21 µM
15 | CN1CCN(c2ccc(N/C=C3\C(=O)NC(=O)c4ccc(-c5ccoc5)cc43)nn2)CC1 [Example 476, (4Z)-6-(3-Furyl)-4-({[6-(4-methylpiperazin-1-yl)pyridazin-3-yl]amino}methylene)isoquinoline-1,3(2H,4H)-dione] |  |  |  | 275 to 276 °C |  |  |  |  | 3.1 µM | 2.6 µM | 1.9 µM | 4.5 µM | > 50 µM | 24.7 µM | 0.82 µM
16 | O=C1NC(=O)c2ccc(Br)cc2/C1=C/N1CCN(CCN2CCOCC2)CC1 [Example 105, (4Z)-6-Bromo-4-{[4-(2-morpholin-4-ylethyl)piperazin-1-yl]methylene}isoquinoline-1,3(2H,4H)-dione] | 42.9 µM | 36.9 µM | 42.6 µM | 156 to 156.5 °C | > 50 µM | > 50 µM | > 50 µM | 24.3 µM |  |  |  |  |  |  | 
17 | CC(=O)Nc1ccc(CN/C=C2\C(=O)NC(=O)c3ccc(Br)cc32)cc1OC(C)=O [Example 141, 2-(Acetylamino)-5-({[(Z)-(6-bromo-1,3-dioxo-2,3-dihydroisoquinolin-4(1H)-′ylidene)methyl]amino}methyl)phenyl acetate] | 1.3 µM | 0.56 µM | 0.84 µM | 264 to 265 °C | 16 µM | > 50 µM | > 50 µM | 0.19 µM |  |  |  |  |  |  | 
